Assay results: ChEMBL document CHEMBL5528064, “Invention of MK-7845, a SARS-CoV-2 3CL Protease Inhibitor Employing a Novel Difluorinated Glutamine Mimic” (J Med Chem, 2024)

Experiments:
SARS-CoV-2 [1] = assay: Antiviral activity against SARS-CoV-2 Omicron B.1.1.529 harboring 3CLpro R346K mutant infected in human A549-hACE2-TMPRSS2 cells assessed as inhibition of virus induced cytopathic effect incubated for 72 hrs by celltiter glo assay; type: functional, organism-based, Severe acute respiratory syndrome coronavirus 2
SARS-CoV-2 [2] = assay: Antiviral activity against replicon RNA harboring SARS-CoV-2 infected in human A549 cells assessed as inhibition of viral growth measured 40 hrs post treatment; type: functional, organism-based; details: Severe acute respiratory syndrome coronavirus 2, A549, 40 h
[3] = Inhibition of SARS-CoV-2 Omicron 3CLpro P132H mutant expressed in Escherichia coli (DE3) competent cells using CP488-ESATLQSGLRKAK-(CPQ2)-NH2 as substrate preincubated for 30 mins followed by substrate addition and measured after 4 hrs by FRET assay; design: species or system Severe acute respiratory syndrome coronavirus 2
SARS-CoV-2 [4] = assay: Antiviral activity against replicon RNA harboring SARS-CoV-2 infected in human A549 cells assessed as inhibition of viral growth; type: functional, organism-based; details: Severe acute respiratory syndrome coronavirus 2, A549

SMILES | IC50 (SARS-CoV-2 [2]) | further results
CNC(=O)C(=O)[C@H](CCC(C)(F)F)NC(=O)[C@@H]1[C@H]2CCC[C@H]2CN1C(=O)[C@@H](NC(=O)OC)C(C)(C)C | 15 nM | IC50 (SARS-CoV-2 [1]): 215 nM; IC50 [3]: 15 nM
COC(=O)N[C@H](C(=O)N1CC[C@@H](C(F)(F)F)C[C@H]1C(=O)N[C@@H](CCC(C)(F)F)C(=O)C(=O)NC1CC1)C(C)(C)C | 19 nM | –
CNC(=O)C(=O)[C@H](CCC(C)(F)F)NC(=O)[C@@H]1C[C@H](C(F)(F)F)CCN1C(=O)[C@@H](NC(=O)OC)C(C)(C)C | 12 nM | –
COC(=O)N[C@H](C(=O)N1C[C@H]2[C@@H]([C@H]1C(=O)N[C@@H](CCC(C)(F)F)C(=O)C(=O)NC1CC1)C21CCOCC1)C(C)(C)C | 32 nM | –
COC(=O)N[C@H](C(=O)N1CCC2(CC2)C[C@H]1C(=O)N[C@@H](CCC(C)(F)F)C(=O)C(=O)NC1CC1)C(C)(C)C | 20 nM | –
COC(=O)N[C@H](C(=O)N1C[C@@H]2CCC[C@@H]2[C@H]1C(=O)N[C@@H](CCC(C)(F)F)C(=O)C(=O)NC1CC1)C(C)(C)C | 18 nM | –
COC(=O)N[C@H](C(=O)N1CC2(C[C@H]1C(=O)N[C@@H](CCC(C)(F)F)C(=O)C(=O)NC1CC1)CC2(F)F)C(C)(C)C (stereo not given in full) | 33 nM | –
CC(C)(C)NC(=O)N[C@H](C(=O)N1C[C@H]2[C@@H]([C@H]1C(=O)N[C@@H](C[C@@H]1CCNC1=O)C(=O)C(N)=O)C2(C)C)C(C)(C)C | – | IC50 (SARS-CoV-2 [4]): 7500 nM
